According to PubChem BioAssay AID2060902 (Molecular Pharmacology Branch, DTP, NCI, 2025):

Tested on: 485368-065-R3-J5-PDC spheroids with HUVEC/MSC, viability
Test: Anticancer human tumor 485368-065-R3-J5-PDC patient-derived pancreatic carcinoma cell line growth inhibition [RAS]
Conditions: for IC50: curve of first compound; for viability, T/C: stronger effect = lower value; active = viability on the fitted dose curve at most 10% of control; inactive = the rest
Description: RAS pathway inhibitors in Combinations in Complex Spheroids
A high-throughput screen of multi-cell type tumor spheroids was designed to identify active combinations of RAS pathway inhibitors and targeted small molecules. Complex spheroids include a stromal component modeled by human endothelial cells (HUVEC) and fibroblasts modeled by human mesenchymal stem cells (MSCs). The concentration ranges selected for each drug and investigational agent were based upon clinically achievable concentrations if the clinical Cmax of the agent was known.
Compounds. The drugs and investigational agents: abemaciclib (NSC768073), cobimetinib (NSC768068), divarasib (GDC6063, NSC841802), docetaxel (NSC628503), GDC-1971 (RLY-1971, NSC841576), gemcitabine (NSC613327), inavolisib (NSC800729), ipatasertib (NSC767898), KB-0742 (NSC834161), MRTX-1133 (NSC836407), osimertinib (NSC779217), RMC-4630 (NSC839698), RMC-6236 (NSC851965), RMC-6291 (NSC852671), Ro-3306 (NSC812927), sapanisertib (NSC764658), SN-38 (NSC673596), staurosporine (NSC755774), SY5609 (NSC837396), and tovorafenib (DAY101, NSC766906), were obtained from the National Cancer Institute (NCI) Developmental Therapeutics Program Chemical Repository. The FDA-approved anticancer drug set is available from the NCI Developmental Therapeutics Program. […] The stock solutions were prepared in dimethyl sulfoxide (DMSO, Sigma-Aldrich, St. Louis, MO, cat. D2650) at 800-fold the tested concentration and stored at -70 degrees C prior to their use. All drugs and investigational agents were tested over a range starting from a high concentration at or near the clinical Cmax and decreasing in half-log increments. If the clinical Cmax for an agent had not been determined, the highest concentration tested was 10 microM.
Cell Culture. All cells were maintained in an incubator at 37 degrees C and 5% CO2 with 95% humidity. The PDC lines were cultured according to standard operating procedures established by the NCI PDMR. All PDCs were thawed and cultured in Matrigel-coated flasks prepared with a working solution of 1X Ham's F-12 nutrient mix, without supplementation (Invitrogen, Waltham, MA, cat. 11765054), 100 U/mL penicillin-streptomycin (Invitrogen, cat. 15140122), and 2.5% Matrigel (Corning Inc., Corning, NY, cat. 354248) for the first three passages. The 362531-283-R-J2-PDC and 782815-120-R-J1-PDC lines were cultured in 6C/Colon 1B media, which includes advanced DMEM/F-12 (Thermo Fisher Scientific, cat. 12634028), 10 mM HEPES (Thermo Fisher Scientific, cat. 15630080), 1X GlutaMAX supplement (Thermo Fisher Scientific, cat. 35050061), 0.1 mg/mL primocin (InvivoGen, San Diego, CA, cat. ant-pm-2), 10% defined fetal bovine serum, heat inactivated (HyClone Laboratories Inc., Logan, UT, cat. SH30070.03HI), 50% L-WRN conditioned media (ATCC, cat. CRL-3276), 1.25 mM N-Acetyl-L-cysteine (Sigma-Aldrich, cat. A9165), 10 mM nicotinamide (Sigma-Aldrich, cat. N0636), 1X B-27 supplement (Thermo Fisher Scientific, cat. 17504044), 1X N-2 supplement (Thermo Fisher Scientific, cat. 17502048), 50 ng/mL human EGF (Thermo Fisher Scientific, cat. PHG0311), and 10 microM Y-27632 dihydrochloride (Tocris Bioscience, cat. 1254). The K12877-001-R-J1-PDC line was cultured in 6I media, which includes all 6C/Colon 1B media plus 10 ng/mL human FGF-10 (PeproTech, cat. 100-26), 1 ng/mL human FGF-2 (PeproTech, cat. 100-18B), 1 µM prostaglandin E2 (Tocris Bioscience, cat. 2296), […] hydrocortisone (Sigma-Aldrich, cat. H4001), and […] bovine insulin (Sigma-Aldrich, cat. I6634). The K86415-001-R-J1-PDC line was cultured in 6D media, which includes all 6C/Colon 1B media components minus the L-WRN conditioned media. The 485176-168-R4-J1-PDC was cultured in PANC media, which includes all 6C/Colon 1B media plus 100 ng/mL human FGF-10 (PeproTech, cat. 100-26), 500 nM SB-431542 (Selleckchem, cat. S1067), and 10 nM gastrin (Tocris Bioscience, cat. 3006). […]

[1] = second compound 0.0316 µM, first compound 0.0316 µM
[2] = second compound 0.0316 µM, first compound 0.1 µM
[3] = second compound 0.1 µM, first compound 0.0316 µM
[4] = second compound 0.1 µM, first compound 0.1 µM
[5] = second compound 0.316 µM, first compound 0.0316 µM
[6] = second compound 0.316 µM, first compound 0.1 µM
[7] = second compound 1 µM, first compound 0.0316 µM
[8] = second compound 1 µM, first compound 0.1 µM
[9] = second compound 3.16 µM, first compound 0.0316 µM
[10] = second compound 3.16 µM, first compound 0.1 µM
[11] = second compound 10 µM, first compound 0.0316 µM
[12] = second compound 10 µM, first compound 0.1 µM
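Also: spheroids exposed to agents for seven days before readout.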

CC(C)n1nc(-c2ccc3oc(N)nc3c2)c2c(N)ncnc21 + C#Cc1c(F)ccc2cc(O)cc(-c3ncc4c(N5CC6CCC(C5)N6)nc(OCC56CCCN5CC(F)C6)nc4c3F)c12
0.0173 µM: IC50 (second compound 1 µM)
< 0.000316 µM: IC50 (second compound 10 µM)
0.0168 µM: IC50 (second compound 0.316 µM)
0.0115 µM: IC50 (second compound 3.16 µM)
0.0192 µM: IC50 (second compound 0.0316 µM)
0.0186 µM: IC50 (second compound 0.1 µM)
inactive: viability, T/C (second compound 0.0316 µM, first compound 0.000316 µM) 96.7% | viability, T/C (second compound 0.0316 µM, first compound 0.001 µM) 97% | viability, T/C (second compound 0.0316 µM, first compound 0.00316 µM) 76.4% | viability, T/C (second compound 0.0316 µM, first compound 0.01 µM) 65.5% | viability, T/C [1] 39.3% | viability, T/C [2] 18.7% | viability, T/C (second compound 0.1 µM, first compound 0.000316 µM) 97.3% | viability, T/C (second compound 0.1 µM, first compound 0.001 µM) 90.6% | viability, T/C (second compound 0.1 µM, first compound 0.00316 µM) 88.9% | viability, T/C (second compound 0.1 µM, first compound 0.01 µM) 65.7% | viability, T/C [3] 36.4% | viability, T/C [4] 18.7% | viability, T/C (second compound 0.316 µM, first compound 0.000316 µM) 99.8% | viability, T/C (second compound 0.316 µM, first compound 0.001 µM) 99.4% | viability, T/C (second compound 0.316 µM, first compound 0.00316 µM) 83.6% | viability, T/C (second compound 0.316 µM, first compound 0.01 µM) 61.8% | viability, T/C [5] 36.1% | viability, T/C [6] 18.7% | viability, T/C (second compound 1 µM, first compound 0.000316 µM) 101% | viability, T/C (second compound 1 µM, first compound 0.001 µM) 96.8% | viability, T/C (second compound 1 µM, first compound 0.00316 µM) 82.8% | viability, T/C (second compound 1 µM, first compound 0.01 µM) 63.6% | viability, T/C [7] 35.7% | viability, T/C [8] 17.8% | viability, T/C (second compound 3.16 µM, first compound 0.000316 µM) 71.3% | viability, T/C (second compound 3.16 µM, first compound 0.001 µM) 76.5% | viability, T/C (second compound 3.16 µM, first compound 0.00316 µM) 67.2% | viability, T/C (second compound 3.16 µM, first compound 0.01 µM) 52.9% | viability, T/C [9] 28.9% | viability, T/C [10] 14.8% | viability, T/C (second compound 10 µM, first compound 0.000316 µM) 47.3% | viability, T/C (second compound 10 µM, first compound 0.001 µM) 36% | viability, T/C (second compound 10 µM, first compound 0.00316 µM) 32.2% | viability, T/C (second compound 10 µM, first compound 0.01 µM) 31.1% | viability, T/C [11] 18.1% | viability, T/C [12] 13.1%

C[C@@H](NC(=O)c1ncnc(N)c1Cl)c1ncc(C(=O)Nc2cc(C(F)(F)F)c(Cl)cn2)s1 + C#Cc1c(F)ccc2cc(O)cc(-c3ncc4c(N5CC6CCC(C5)N6)nc(OCC56CCCN5CC(F)C6)nc4c3F)c12
> 10 µM: IC50 (second compound 0.0316 µM) | IC50 (second compound 0.1 µM) | IC50 (second compound 0.316 µM) | IC50 (second compound 1 µM) | IC50 (second compound 3.16 µM)
inactive: viability, T/C [1] 103% | viability, T/C [2] 105% | viability, T/C (second compound 0.0316 µM, first compound 0.316 µM) 114% | viability, T/C (second compound 0.0316 µM, first compound 1 µM) 114% | viability, T/C (second compound 0.0316 µM, first compound 3.16 µM) 98% | viability, T/C (second compound 0.0316 µM, first compound 10 µM) 69.7% | viability, T/C [3] 111% | viability, T/C [4] 115% | viability, T/C (second compound 0.1 µM, first compound 0.316 µM) 113% | viability, T/C (second compound 0.1 µM, first compound 1 µM) 113% | viability, T/C (second compound 0.1 µM, first compound 3.16 µM) 96.5% | viability, T/C (second compound 0.1 µM, first compound 10 µM) 57.9% | viability, T/C [5] 101% | viability, T/C [6] 104% | viability, T/C (second compound 0.316 µM, first compound 0.316 µM) 105% | viability, T/C (second compound 0.316 µM, first compound 1 µM) 100% | viability, T/C (second compound 0.316 µM, first compound 3.16 µM) 93.2% | viability, T/C (second compound 0.316 µM, first compound 10 µM) 75.2% | viability, T/C [7] 109% | viability, T/C [8] 106% | viability, T/C (second compound 1 µM, first compound 0.316 µM) 104% | viability, T/C (second compound 1 µM, first compound 1 µM) 106% | viability, T/C (second compound 1 µM, first compound 3.16 µM) 96% | viability, T/C (second compound 1 µM, first compound 10 µM) 69.9% | viability, T/C [9] 97.6% | viability, T/C [10] 98.6% | viability, T/C (second compound 3.16 µM, first compound 0.316 µM) 94.5% | viability, T/C (second compound 3.16 µM, first compound 1 µM) 93.3% | viability, T/C (second compound 3.16 µM, first compound 3.16 µM) 89.1% | viability, T/C (second compound 3.16 µM, first compound 10 µM) 62% | viability, T/C [11] 53.5% | viability, T/C [12] 50.5% | viability, T/C (second compound 10 µM, first compound 0.316 µM) 50.3% | viability, T/C (second compound 10 µM, first compound 1 µM) 46% | viability, T/C (second compound 10 µM, first compound 3.16 µM) 52.6% | viability, T/C (second compound 10 µM, first compound 10 µM) 46.9%
0.528 µM: IC50 (second compound 10 µM)
